Experimental data from US11197878B2, “Anti-inflammatory composition including novel quercetin-based compound” (AMOREPACIFIC CORPORATION, priority 2017, dated 2021).

System: skin
Test: Test for skin accumulated stimulus, HRIPT (Human repeated insult patch tests)
Type: in vivo
Design: key to skin reactivity (ICDRG criteria): −: negative (no response); ±: doubtful or slight erythema, etc.; +: weak reaction (which is accompanied with no phlyctenule), erythema, papule; ++: severe reaction (which is accompanied with phlyctenule), erythema, papule, phlyctenule; +++: strong reaction, bullae reaction
Details: for Number of examinees who exhibited ±, +, or ++ reactivity, 1st: 1st patch; for Number of examinees who exhibited ±, +, or ++ reactivity, 2nd: 2nd patch; for Number of examinees who exhibited ±, +, or ++ reactivity, 3rd: 3rd patch; for Number of examinees who exhibited ±, +, or ++ reactivity, 4th: 4th patch; for Number of examinees who exhibited ±, +, or ++ reactivity, 5th: 5th patch; for Number of examinees who exhibited ±, +, or ++ reactivity, 6th: 6th patch; for Number of examinees who exhibited ±, +, or ++ reactivity, 7th: 7th patch; for Number of examinees who exhibited ±, +, or ++ reactivity, 8th: 8th patch; for average reactivity: 9 patches over 3 weeks, 15 examinees, less than 3 is considered a stable composition; for Number of examinees who exhibited ±, +, or ++ reactivity, 9th: 9th patch
Procedure: HRIPT (Human repeated insult patch tests) was conducted in order to identify skin accumulated stimulus of quercetin3-O-[3-O″-(E)-p-coumaroyl][β-D-glucopyranosyl-(1→3)-O-α-L-rhamnopyranosyl-(1→6)-O-β-D-glucopyranoside] and quercetin3-O-[3-O″-(E)-p-coumaroyl][α-L-rhamnopyranosyl-(1→6)-O-β-D-glucopyranoside] and to calculate the concentration range that can be used in skin. Specifically, 15 healthy adult examinees were randomly selected, and test compositions in which the compounds were respectively comprised in an amount of 0.5 wt. %, 1 wt. %, and 3 wt. % (the compositions for skin, comprising an emulsifying agent, a stabilizer, purified water, etc. in addition to the compounds) were dropped in the amount of 20 μl per chamber (IQ chamber, Epitest Ltd, Finland), and patched on the right site of the upper back of the examinees, and then, after 24 hours, the patch was replaced with a new patch. A total of 9 patches were conducted, three times a week for total 3 weeks, in such manner, the skin reactions before and after patch were examined every time, and the skin reactions until 48 hours after removing the final patch were observed, and the average reactivity was observed. The skin reaction was determined according to the criteria of International Contact Dermatitis Research Group (ICDRG). In the above table, “New Material 31” refers to quercetin3-O-[3-O″-(E)-p-coumaroyl][β-D-glucopyranosyl-(1→3)-O-α-L-rhamnopyranosyl-(1→6)-O-β-D-glucopyranoside], and “New Material 32” refers to quercetin3-O-[3-O″-(E)-p-coumaroyl][α-L-rhamnopyranosyl-(1→6)-O-β-D-glucopyranoside].

C[C@@H]1O[C@@H](OC[C@H]2O[C@@H](Oc3c(-c4ccc(O)c(O)c4)oc4cc(O)cc(O)c4c3=O)[C@H](O)[C@@H](OC(=O)/C=C/c3ccc(O)cc3)[C@@H]2O)[C@H](O)[C@H](O[C@@H]2O[C@H](CO)[C@@H](O)[C@H](O)[C@H]2O)[C@H]1O [New Material 31, quercetin3-O-[3-O″-(E)-p-coumaroyl][β-D-glucopyranosyl-(1→3)-O-α-L-rhamnopyranosyl-(1→6)-O-β-D-glucopyranoside]]
Number of examinees who exhibited ±, +, or ++ reactivity, 1st (0.5 wt. %, line 1 of 3 (±)): 0 number
Number of examinees who exhibited ±, +, or ++ reactivity, 1st (0.5 wt. %, line 2 of 3 (+)): 0 number
Number of examinees who exhibited ±, +, or ++ reactivity, 1st (0.5 wt. %, line 3 of 3 (++)): 0 number
Number of examinees who exhibited ±, +, or ++ reactivity, 2nd (0.5 wt. %, line 1 of 3 (±)): 0 number
Number of examinees who exhibited ±, +, or ++ reactivity, 2nd (0.5 wt. %, line 2 of 3 (+)): 0 number
Number of examinees who exhibited ±, +, or ++ reactivity, 2nd (0.5 wt. %, line 3 of 3 (++)): 0 number
Number of examinees who exhibited ±, +, or ++ reactivity, 3rd (0.5 wt. %, line 1 of 3 (±)): 0 number
Number of examinees who exhibited ±, +, or ++ reactivity, 3rd (0.5 wt. %, line 2 of 3 (+)): 0 number
Number of examinees who exhibited ±, +, or ++ reactivity, 3rd (0.5 wt. %, line 3 of 3 (++)): 0 number
Number of examinees who exhibited ±, +, or ++ reactivity, 4th (0.5 wt. %, line 1 of 3 (±)): 0 number
Number of examinees who exhibited ±, +, or ++ reactivity, 4th (0.5 wt. %, line 2 of 3 (+)): 0 number
Number of examinees who exhibited ±, +, or ++ reactivity, 4th (0.5 wt. %, line 3 of 3 (++)): 0 number
Number of examinees who exhibited ±, +, or ++ reactivity, 5th (0.5 wt. %, line 1 of 3 (±)): 0 number
Number of examinees who exhibited ±, +, or ++ reactivity, 5th (0.5 wt. %, line 2 of 3 (+)): 0 number
Number of examinees who exhibited ±, +, or ++ reactivity, 5th (0.5 wt. %, line 3 of 3 (++)): 0 number
Number of examinees who exhibited ±, +, or ++ reactivity, 6th (0.5 wt. %, line 1 of 3 (±)): 0 number
Number of examinees who exhibited ±, +, or ++ reactivity, 6th (0.5 wt. %, line 2 of 3 (+)): 0 number
Number of examinees who exhibited ±, +, or ++ reactivity, 6th (0.5 wt. %, line 3 of 3 (++)): 0 number
Number of examinees who exhibited ±, +, or ++ reactivity, 7th (0.5 wt. %, line 1 of 3 (±)): 0 number
Number of examinees who exhibited ±, +, or ++ reactivity, 7th (0.5 wt. %, line 2 of 3 (+)): 0 number
Number of examinees who exhibited ±, +, or ++ reactivity, 7th (0.5 wt. %, line 3 of 3 (++)): 0 number
Number of examinees who exhibited ±, +, or ++ reactivity, 8th (0.5 wt. %, line 1 of 3 (±)): 0 number
Number of examinees who exhibited ±, +, or ++ reactivity, 8th (0.5 wt. %, line 2 of 3 (+)): 0 number
Number of examinees who exhibited ±, +, or ++ reactivity, 8th (0.5 wt. %, line 3 of 3 (++)): 0 number
average reactivity (0.5 wt. %): 0
Number of examinees who exhibited ±, +, or ++ reactivity, 9th (0.5 wt. %, line 1 of 3 (±)): 0 number
Number of examinees who exhibited ±, +, or ++ reactivity, 9th (0.5 wt. %, line 2 of 3 (+)): 0 number
Number of examinees who exhibited ±, +, or ++ reactivity, 9th (0.5 wt. %, line 3 of 3 (++)): 0 number
Number of examinees who exhibited ±, +, or ++ reactivity, 1st (1 wt. %, line 1 of 3 (±)): 0 number
Number of examinees who exhibited ±, +, or ++ reactivity, 1st (1 wt. %, line 2 of 3 (+)): 0 number
Number of examinees who exhibited ±, +, or ++ reactivity, 1st (1 wt. %, line 3 of 3 (++)): 0 number
Number of examinees who exhibited ±, +, or ++ reactivity, 2nd (1 wt. %, line 1 of 3 (±)): 0 number
Number of examinees who exhibited ±, +, or ++ reactivity, 2nd (1 wt. %, line 2 of 3 (+)): 0 number
Number of examinees who exhibited ±, +, or ++ reactivity, 2nd (1 wt. %, line 3 of 3 (++)): 0 number
Number of examinees who exhibited ±, +, or ++ reactivity, 3rd (1 wt. %, line 1 of 3 (±)): 0 number
Number of examinees who exhibited ±, +, or ++ reactivity, 3rd (1 wt. %, line 2 of 3 (+)): 0 number
Number of examinees who exhibited ±, +, or ++ reactivity, 3rd (1 wt. %, line 3 of 3 (++)): 0 number
Number of examinees who exhibited ±, +, or ++ reactivity, 4th (1 wt. %, line 1 of 3 (±)): 0 number
Number of examinees who exhibited ±, +, or ++ reactivity, 4th (1 wt. %, line 2 of 3 (+)): 0 number
Number of examinees who exhibited ±, +, or ++ reactivity, 4th (1 wt. %, line 3 of 3 (++)): 0 number
Number of examinees who exhibited ±, +, or ++ reactivity, 5th (1 wt. %, line 1 of 3 (±)): 0 number
Number of examinees who exhibited ±, +, or ++ reactivity, 5th (1 wt. %, line 2 of 3 (+)): 0 number
Number of examinees who exhibited ±, +, or ++ reactivity, 5th (1 wt. %, line 3 of 3 (++)): 0 number
Number of examinees who exhibited ±, +, or ++ reactivity, 6th (1 wt. %, line 1 of 3 (±)): 0 number
Number of examinees who exhibited ±, +, or ++ reactivity, 6th (1 wt. %, line 2 of 3 (+)): 0 number
Number of examinees who exhibited ±, +, or ++ reactivity, 6th (1 wt. %, line 3 of 3 (++)): 0 number
Number of examinees who exhibited ±, +, or ++ reactivity, 7th (1 wt. %, line 1 of 3 (±)): 0 number
Number of examinees who exhibited ±, +, or ++ reactivity, 7th (1 wt. %, line 2 of 3 (+)): 0 number
Number of examinees who exhibited ±, +, or ++ reactivity, 7th (1 wt. %, line 3 of 3 (++)): 0 number
Number of examinees who exhibited ±, +, or ++ reactivity, 8th (1 wt. %, line 1 of 3 (±)): 0 number
Number of examinees who exhibited ±, +, or ++ reactivity, 8th (1 wt. %, line 2 of 3 (+)): 0 number
Number of examinees who exhibited ±, +, or ++ reactivity, 8th (1 wt. %, line 3 of 3 (++)): 0 number
average reactivity (1 wt. %): 0
Number of examinees who exhibited ±, +, or ++ reactivity, 9th (1 wt. %, line 1 of 3 (±)): 0 number
Number of examinees who exhibited ±, +, or ++ reactivity, 9th (1 wt. %, line 2 of 3 (+)): 0 number
Number of examinees who exhibited ±, +, or ++ reactivity, 9th (1 wt. %, line 3 of 3 (++)): 0 number
Number of examinees who exhibited ±, +, or ++ reactivity, 1st (3 wt. %, line 1 of 3 (±)): 0 number
Number of examinees who exhibited ±, +, or ++ reactivity, 1st (3 wt. %, line 2 of 3 (+)): 0 number
Number of examinees who exhibited ±, +, or ++ reactivity, 1st (3 wt. %, line 3 of 3 (++)): 0 number
Number of examinees who exhibited ±, +, or ++ reactivity, 2nd (3 wt. %, line 1 of 3 (±)): 0 number
Number of examinees who exhibited ±, +, or ++ reactivity, 2nd (3 wt. %, line 2 of 3 (+)): 0 number
Number of examinees who exhibited ±, +, or ++ reactivity, 2nd (3 wt. %, line 3 of 3 (++)): 0 number
Number of examinees who exhibited ±, +, or ++ reactivity, 3rd (3 wt. %, line 1 of 3 (±)): 0 number
Number of examinees who exhibited ±, +, or ++ reactivity, 3rd (3 wt. %, line 2 of 3 (+)): 0 number
Number of examinees who exhibited ±, +, or ++ reactivity, 3rd (3 wt. %, line 3 of 3 (++)): 0 number
Number of examinees who exhibited ±, +, or ++ reactivity, 4th (3 wt. %, line 1 of 3 (±)): 0 number
Number of examinees who exhibited ±, +, or ++ reactivity, 4th (3 wt. %, line 2 of 3 (+)): 0 number
Number of examinees who exhibited ±, +, or ++ reactivity, 4th (3 wt. %, line 3 of 3 (++)): 0 number
Number of examinees who exhibited ±, +, or ++ reactivity, 5th (3 wt. %, line 1 of 3 (±)): 0 number
Number of examinees who exhibited ±, +, or ++ reactivity, 5th (3 wt. %, line 2 of 3 (+)): 0 number
Number of examinees who exhibited ±, +, or ++ reactivity, 5th (3 wt. %, line 3 of 3 (++)): 0 number
Number of examinees who exhibited ±, +, or ++ reactivity, 6th (3 wt. %, line 1 of 3 (±)): 0 number
Number of examinees who exhibited ±, +, or ++ reactivity, 6th (3 wt. %, line 2 of 3 (+)): 0 number
Number of examinees who exhibited ±, +, or ++ reactivity, 6th (3 wt. %, line 3 of 3 (++)): 0 number
Number of examinees who exhibited ±, +, or ++ reactivity, 7th (3 wt. %, line 1 of 3 (±)): 0 number
Number of examinees who exhibited ±, +, or ++ reactivity, 7th (3 wt. %, line 2 of 3 (+)): 0 number
Number of examinees who exhibited ±, +, or ++ reactivity, 7th (3 wt. %, line 3 of 3 (++)): 0 number
Number of examinees who exhibited ±, +, or ++ reactivity, 8th (3 wt. %, line 1 of 3 (±)): 0 number
Number of examinees who exhibited ±, +, or ++ reactivity, 8th (3 wt. %, line 2 of 3 (+)): 0 number
Number of examinees who exhibited ±, +, or ++ reactivity, 8th (3 wt. %, line 3 of 3 (++)): 0 number
average reactivity (3 wt. %): 0
Number of examinees who exhibited ±, +, or ++ reactivity, 9th (3 wt. %, line 1 of 3 (±)): 0 number
Number of examinees who exhibited ±, +, or ++ reactivity, 9th (3 wt. %, line 2 of 3 (+)): 0 number
Number of examinees who exhibited ±, +, or ++ reactivity, 9th (3 wt. %, line 3 of 3 (++)): 0 number
skin reactivity (ICDRG criteria) (within the range of contents 0.5 wt. %, 1 wt. %, 3 wt. %): −
